Results taken from Sander's compilation of Henry's law constants (doi:10.1016/j.watres.2017.04.074).

Experiment: Henry solubility constant Hcp at 298.15 K (mol/(m3 Pa))
Conditions: reference: Chao et al. (2017)

| SMILES | Henry solubility constant Hcp |
| --- | --- |
| COP(=O)(OC)C(O)C(Cl)(Cl)Cl (stereo unspecified) | 55 |
| Clc1ccc(C(c2ccc(Cl)cc2)C(Cl)Cl)cc1 [1,1-dichloro-2,2-bis-(4-chlorophenyl)-ethane] | 0.76 |
| Nc1ccccc1Cl [1-amino-2-chlorobenzene] | 0.78 |
| Nc1cccc(Cl)c1 [1-amino-3-chlorobenzene] | 4.7 |
| Cc1ccccc1O [1-hydroxy-2-methylbenzene] | 6.5 |
| O=[N+]([O-])c1cccc2ccccc12 [1-nitronaphthalene] | 4.6 |
| O=[N+]([O-])c1ccc(O)c([N+](=O)[O-])c1 [2,4-dinitrophenol] | 970 |
| CC(C)CO [2-methyl-1-propanol] | 1.2 |
| Cc1ccccc1N [2-methylbenzenamine] | 3 |
| O=[N+]([O-])c1ccccc1O [2-nitrophenol] | 9.9 |
| O=[N+]([O-])c1cccc(Cl)c1 [3-chloronitrobenzene] | 1.4 |
| Cc1cccc(N)c1 [3-methylbenzenamine] | 3.2 |
| CC1CCCC(O)C1 (stereo unspecified) [3-methylcyclohexanol] | 2.9 |
| Cc1cccc([N+](=O)[O-])c1 [3-nitrotoluene] | 1.3 |
| O=[N+]([O-])c1ccc(Cl)cc1 [4-chloronitrobenzene] | 1.4 |
| O=[N+]([O-])c1ccc(O)cc1 [4-nitrophenol] | 14 |

| SMILES | Henry solubility constant Hcp |
| --- | --- |
| OCc1ccccc1 [(hydroxymethyl)-benzene] | 17 |
| ClC1=C(Cl)[C@]2(Cl)[C@H]3[C@H]([C@@H]4C=C[C@H]3C4)[C@@]1(Cl)C2(Cl)Cl [aldrin] | 0.26 |
| CCNc1nc(NC(C)C)nc(SC)n1 [ametryn] | 21 |
| Nc1ccccc1 [aminobenzene] | 4.4 |
| CNC(=O)Oc1cccc2c1OC(C)(C)C2 [carbofuran] | 24 |
| ClC1=C(Cl)[C@]2(Cl)[C@@H]3[C@@H]4C[C@@H]([C@H]5O[C@@H]45)[C@@H]3[C@@]1(Cl)C2(Cl)Cl [dieldrin] | 0.65 |
| COC(=O)c1ccccc1C(=O)OC [dimethyl phthalate] | 23 |
| CN(C)C(=O)Nc1ccc(Cl)c(Cl)c1 [diuron] | 35 |
| ClC1=C(Cl)[C@]2(Cl)[C@@H]3[C@H]4C[C@H]([C@@H]5O[C@H]45)[C@@H]3[C@@]1(Cl)C2(Cl)Cl [endrin] | 1.5 |
| ClC1=C(Cl)C2(Cl)C3C4OC4C(Cl)C3C1(Cl)C2(Cl)Cl (stereo unspecified) [heptachlorepoxide] | 0.96 |
| CCOC(=O)CC(SP(=S)(OC)OC)C(=O)OCC (stereo unspecified) [malathion] | 15 |
| CNC(=O)ON=C(C)SC [methomyl] | 200 |
| COP(=S)(OC)Oc1ccc([N+](=O)[O-])cc1 [methylparathion] | 17 |
| O=[N+]([O-])c1ccccc1 [nitrobenzene] | 0.67 |
| ClC1C(Cl)C(Cl)C(Cl)C(Cl)C1Cl (stereo unspecified) [γ-1,2,3,4,5,6-hexachlorocyclohexane] | 3.1 |
